{"source": "patent US20250177481A1", "about": "“SCO-spondin-derived polypeptides for enhancing synaptic transmission” (AXOLTIS PHARMA, priority 2021, published 2025)", "test_system": "thalamocortical synaptic response (ventrobasal thalamic nucleus to somatosensory cortex)", "assay": "fEPSP input-output (I/O) recordings in thalamocortical mouse brain slices", "type": "cell-based, C57Bl6/J mice", "conditions": "for Normalized fEPSP slope: % of max of vehicle I/O curve, mean of 10 slices", "protocol": "Comparison of postsynaptic responses in control versus NX218 peptide conditions were assessed.\nFive (C57Bl6/J) male mice 4-5 weeks-old were obtained from Charles River, France and housed in an animal facility. Animal care was compliant with national and local Ethics committee recommendations. Mice were deeply anesthetized by inhalation of isoflurane then decapitated. The dissected brain was quickly placed in ice-cold oxygenated (95% O2/5% CO2) solution containing 214 mM sucrose, 2.5 mM KCl, 1.25 mM NaH2PO4, 26 mM NaHCO3, 2 mM MgSO4, 2 mM CaCl2 and 10 mM D-glucose.\n10 Thalamocortical slices (2 slices per mouse) were prepared as described in Agmon and Connors (1991) and Varela et al. (2013). After its recovery, the brain was placed on a support allowing to elevate the caudal part of the brain until dorsal surface forms a 10-degree angle with the horizontal plane. Then, a section at 55 degrees with respect to the midline was performed and the rostral part was removed. In the slicing chamber, the brain was glued on the sectioned face. Then, the brain was sliced with a thickness of 400 μm. Slices were immediately transferred to a holding chamber filled with an artificial cerebrospinal fluid (aCSF) composed by 124 mM NaCl, 2.5 mM KCl, 1.25 mM NaH2PO4, 26 mM NaHCO3, 2 mM MgSO4, 2 mM CaCl2 and 10 mM D-glucose. The holding chamber was continuously oxygenated and maintained at 35° C. After a recovery period of 30 min, slices were incubated at room temperature for a minimum of 30 min.\nFor electrophysiological recordings, a single slice was placed in the recording chamber (room temperature) submerged and continuously superfused at a constant rate (2 mL/min) with gassed (95% O2, 5% CO2) aCSF for the reminder of the experiment.\nA bipolar tungsten stimulating electrode was placed in the ventrobasal nucleus of the thalamus (the ventrobasal nucleus of the thalamus contains mostly glutamatergic neurons and few GABAergic interneurons) and extracellular field potential was recorded in the somatosensory cortex using a glass microelectrode.\nSynaptic transmission Input/Output (I/O) curves were constructed to assess changes in the synaptic transmission, using a range of stimulus intensities from 0 μA to 850 μA with 50 μA intervals. Increasing stimulation intensities results in a linear increase until a maximal plateau in vehicle conditions.\nSignals were amplified with an Axopatch 200B amplifier (Molecular Devices, Union City, CA) digitized by a Digidata 1322A interface (Axon Instruments, Molecular Devices, US) and sampled at 10 kHz. Recordings were acquired using Clampex (Molecular Devices) and analyzed with Clampfit (Molecular Devices). Experimenters were blinded to treatment groups for all experiments.\nNX218 or vehicle was delivered in the thalamic radiations region by fast focal perfusion. The system consists of syringes containing the respective solutions with tubing lines fusing to a low dead-volume manifold mounted to a micromanipulator. The tip (300-μm diameter) mounted to the manifold was located within a desired distance of less than 1 mm of the target region, with a flow rates of approximately 0.2 mL/min. Tubing lines were controlled by electrical pinch valves which were opened and closed by transistor-transistor logic signals sent out from the DigiData system and parameters set in the perfusion and recording protocol in Clampex 10.3.\nData were analyzed by measuring the slope of individual fEPSPs by linear fitting using Clampfit. The slope of fEPSPs was plotted against different intensities of stimulation (from 0 to 850 μA).", "note": "Positions of bridges follow the written chain, without caps; N, C: chain ends. No end group written: not given here.", "data": [{"substance": "W-S-G-W-S-S-C-S-R-S-C-G [NX218] (WSGWSSCSRSCG; disulfide 7-11 (inferred))", "values": [{"measurement": "change of fEPSP slope vs vehicle alone (whole I/O curve)", "setting": "particularly for stimulation intensities from 150 to 450 μA", "result": "significant increase"}, {"measurement": "Normalized fEPSP slope", "setting": "stimulation intensity 0 µA", "result": 0.37, "unit": "%"}, {"measurement": "Normalized fEPSP slope", "setting": "stimulation intensity 50 µA", "result": 26.12, "unit": "%"}, {"measurement": "Normalized fEPSP slope", "setting": "stimulation intensity 100 µA", "result": 54.34, "unit": "%"}, {"measurement": "Normalized fEPSP slope", "setting": "stimulation intensity 150 µA", "result": 87.31, "unit": "%"}, {"measurement": "Normalized fEPSP slope", "setting": "stimulation intensity 200 µA", "result": 99.95, "unit": "%"}, {"measurement": "Normalized fEPSP slope", "setting": "stimulation intensity 250 µA", "result": 107.48, "unit": "%"}, {"measurement": "Normalized fEPSP slope", "setting": "stimulation intensity 300 µA", "result": 111.20, "unit": "%"}, {"measurement": "Normalized fEPSP slope", "setting": "stimulation intensity 350 µA", "result": 118.22, "unit": "%"}, {"measurement": "Normalized fEPSP slope", "setting": "stimulation intensity 400 µA", "result": 118.91, "unit": "%"}, {"measurement": "Normalized fEPSP slope", "setting": "stimulation intensity 450 µA", "result": 121.63, "unit": "%"}, {"measurement": "Normalized fEPSP slope", "setting": "stimulation intensity 500 µA", "result": 121.16, "unit": "%"}, {"measurement": "Normalized fEPSP slope", "setting": "stimulation intensity 550 µA", "result": 122.81, "unit": "%"}, {"measurement": "Normalized fEPSP slope", "setting": "stimulation intensity 600 µA", "result": 121.42, "unit": "%"}, {"measurement": "Normalized fEPSP slope", "setting": "stimulation intensity 650 µA", "result": 124.24, "unit": "%"}, {"measurement": "Normalized fEPSP slope", "setting": "stimulation intensity 700 µA", "result": 124.14, "unit": "%"}, {"measurement": "Normalized fEPSP slope", "setting": "stimulation intensity 750 µA", "result": 121.65, "unit": "%"}, {"measurement": "Normalized fEPSP slope", "setting": "stimulation intensity 800 µA", "result": 120.97, "unit": "%"}, {"measurement": "Normalized fEPSP slope", "setting": "stimulation intensity 850 µA", "result": 121.41, "unit": "%"}]}]}
